Results: ChEMBL document CHEMBL1240349, “Influence of tigecycline on expression of virulence factors in biofilm-associated cells of methicillin-resistant Staphylococcus aureus” (2010)

Legend:
Assay type in all cases: functional
[1] = test system: Staphylococcus aureus; experiment: Decrease in capF gene expression in biofilm-associated cells of epidemic methicillin-resistant Staphylococcus aureus isolate 16 at 4 times MIC incubated for 1 hr by whole genome microarray relative to untreated control
[2] = test system: Staphylococcus aureus; experiment: Decrease in capD gene expression in biofilm-associated cells of epidemic methicillin-resistant Staphylococcus aureus isolate 16 at 4 times MIC incubated for 1 hr by whole genome microarray relative to untreated control
[3] = test system: Staphylococcus aureus; experiment: Increase in infA gene expression in biofilm-associated cells of epidemic methicillin-resistant Staphylococcus aureus isolate 16 at 4 times MIC incubated for 1 hr by whole genome microarray relative to untreated control
[4] = test system: Staphylococcus aureus; experiment: Increase in infC gene expression in biofilm-associated cells of epidemic methicillin-resistant Staphylococcus aureus isolate 16 at 4 times MIC incubated for 1 hr by whole genome microarray relative to untreated control
[5] = test system: Staphylococcus aureus; experiment: Increase in rpmI gene expression in biofilm-associated cells of epidemic methicillin-resistant Staphylococcus aureus isolate 16 at 4 times MIC incubated for 1 hr by whole genome microarray relative to untreated control
[6] = test system: Staphylococcus aureus; experiment: Increase in rpsE gene expression in biofilm-associated cells of epidemic methicillin-resistant Staphylococcus aureus isolate 16 at 4 times MIC incubated for 1 hr by whole genome microarray relative to untreated control
[7] = test system: Staphylococcus aureus; experiment: Increase in rplC gene expression in biofilm-associated cells of epidemic methicillin-resistant Staphylococcus aureus isolate 16 at 4 times MIC incubated for 1 hr by whole genome microarray relative to untreated control
[8] = test system: Staphylococcus aureus; experiment: Increase in rplJ gene expression in biofilm-associated cells of epidemic methicillin-resistant Staphylococcus aureus isolate 16 at 4 times MIC incubated for 1 hr by whole genome microarray relative to untreated control
[9] = test system: Staphylococcus aureus; experiment: Increase in rplD gene expression in biofilm-associated cells of epidemic methicillin-resistant Staphylococcus aureus isolate 16 at 4 times MIC incubated for 1 hr by whole genome microarray relative to untreated control
[10] = test system: Staphylococcus aureus; experiment: Increase in rplN gene expression in biofilm-associated cells of epidemic methicillin-resistant Staphylococcus aureus isolate 16 at 4 times MIC incubated for 1 hr by whole genome microarray relative to untreated control
[11] = test system: Staphylococcus aureus; experiment: Decrease in icaC gene expression in biofilm-associated cells of epidemic methicillin-resistant Staphylococcus aureus isolate 16 at 4 times MIC incubated for 1 hr by RT-PCR relative to untreated control
[12] = test system: Staphylococcus aureus; experiment: Increase in mnhG gene expression in biofilm-associated cells of epidemic methicillin-resistant Staphylococcus aureus isolate 16 at 4 times MIC incubated for 1 hr by RT-PCR relative to untreated control
[13] = test system: Staphylococcus aureus; experiment: Decrease in tst gene expression in biofilm-associated cells of epidemic methicillin-resistant Staphylococcus aureus isolate 16 at 4 times MIC incubated for 1 hr by RT-PCR relative to untreated control
[14] = test system: Staphylococcus aureus; experiment: Decrease in capC expression in biofilm-associated cells of epidemic methicillin-resistant Staphylococcus aureus isolate 16-1 at 4 times MIC incubated for 1 hr by RT-PCR relative to untreated control
[15] = test system: Staphylococcus aureus; experiment: Increase in clfB expression in biofilm-associated cells of epidemic methicillin-resistant Staphylococcus aureus isolate 16-1 at 4 times MIC incubated for 1 hr by RT-PCR relative to untreated control
[16] = test system: Staphylococcus aureus; experiment: Decrease in sodA gene expression in biofilm-associated cells of epidemic methicillin-resistant Staphylococcus aureus isolate 16 at 4 times MIC incubated for 1 hr by whole genome microarray relative to untreated control
[17] = test system: Staphylococcus aureus; experiment: Decrease in mecI gene expression in biofilm-associated cells of epidemic methicillin-resistant Staphylococcus aureus isolate 16 at 4 times MIC incubated for 1 hr by whole genome microarray relative to untreated control
[18] = test system: Staphylococcus aureus; experiment: Decrease in polA gene expression in biofilm-associated cells of epidemic methicillin-resistant Staphylococcus aureus isolate 16 at 4 times MIC incubated for 1 hr by whole genome microarray relative to untreated control
[19] = test system: Staphylococcus aureus; experiment: Increase in topA gene expression in biofilm-associated cells of epidemic methicillin-resistant Staphylococcus aureus isolate 16 at 4 times MIC incubated for 1 hr by whole genome microarray relative to untreated control
[20] = test system: Staphylococcus aureus; experiment: Increase in nusG gene expression in biofilm-associated cells of epidemic methicillin-resistant Staphylococcus aureus isolate 16 at 4 times MIC incubated for 1 hr by whole genome microarray relative to untreated control
[21] = test system: Staphylococcus aureus; experiment: Decrease in icaC expression in biofilm-associated cells of epidemic methicillin-resistant Staphylococcus aureus isolate 16-1 at 4 times MIC incubated for 1 hr by RT-PCR relative to untreated control
[22] = test system: Staphylococcus aureus; experiment: Increase in isaA expression in biofilm-associated cells of epidemic methicillin-resistant Staphylococcus aureus isolate 16-1 at 4 times MIC incubated for 1 hr by RT-PCR relative to untreated control
[23] = test system: Staphylococcus aureus; experiment: Decrease in sasF expression in biofilm-associated cells of epidemic methicillin-resistant Staphylococcus aureus isolate 16-1 at 4 times MIC incubated for 1 hr by RT-PCR relative to untreated control
[24] = test system: Staphylococcus aureus; experiment: Decrease in tst expression in biofilm-associated cells of epidemic methicillin-resistant Staphylococcus aureus isolate 16-1 at 4 times MIC incubated for 1 hr by RT-PCR relative to untreated control
[25] = test system: Staphylococcus aureus; experiment: Decrease in capG expression in biofilm-associated cells of epidemic methicillin-resistant Staphylococcus aureus isolate 16-2 at 4 times MIC incubated for 1 hr by RT-PCR relative to untreated control
[26] = test system: Staphylococcus aureus; experiment: Decrease in clpC expression in biofilm-associated cells of epidemic methicillin-resistant Staphylococcus aureus isolate 16-2 at 4 times MIC incubated for 1 hr by RT-PCR relative to untreated control
[27] = test system: Staphylococcus aureus; experiment: Decrease in tst expression in biofilm-associated cells of epidemic methicillin-resistant Staphylococcus aureus isolate 16-2 at 4 times MIC incubated for 1 hr by RT-PCR relative to untreated control
[28] = test system: Staphylococcus aureus; experiment: Decrease in capC expression in biofilm-associated cells of epidemic methicillin-resistant Staphylococcus aureus isolate 15 at 4 times MIC incubated for 1 hr by RT-PCR relative to untreated control
[29] = test system: Staphylococcus aureus; experiment: Increase in cna expression in biofilm-associated cells of epidemic methicillin-resistant Staphylococcus aureus isolate 15 at 4 times MIC incubated for 1 hr by RT-PCR relative to untreated control
[30] = test system: Staphylococcus aureus; experiment: Increase in fnbB expression in biofilm-associated cells of epidemic methicillin-resistant Staphylococcus aureus isolate 15 at 4 times MIC incubated for 1 hr by RT-PCR relative to untreated control
[31] = test system: Staphylococcus aureus; experiment: Decrease in sasF expression in biofilm-associated cells of epidemic methicillin-resistant Staphylococcus aureus isolate 15 at 4 times MIC incubated for 1 hr by RT-PCR relative to untreated control

`CN(C)c1cc(NC(=O)CNC(C)(C)C)c(O)c2c1C[C@H]1C[C@H]3[C@H](N(C)C)C(O)=C(C(N)=O)C(=O)[C@@]3(O)C(O)=C1C2=O` [TIGECYCLINE] was tested, and the “fold change (FC)” value [1] was 2.66, the “fold change (FC)” value [2] was 2.19 and the “fold change (FC)” value [3] was 4.77. The “fold change (FC)” value [4] was 6.29, the “fold change (FC)” value [5] was 10.51 and the “fold change (FC)” value [6] was 11.01. The “fold change (FC)” value [7] was 12.06, the “fold change (FC)” value [8] was 12.75 and the “fold change (FC)” value [9] was 13.06. For the same molecule, the “fold change (FC)” value [10] was 13.76, the “fold change (FC)” value [11] was 2.23 and the “fold change (FC)” value [12] was 5.16. The “fold change (FC)” value [13] was 1.51, the “fold change (FC)” value [14] was 1.75 and the “fold change (FC)” value [15] was 7.5. For the same molecule, the “fold change (FC)” value [16] was 2.59, the “fold change (FC)” value [17] was 2.39 and the “fold change (FC)” value [18] was 2.11. The “fold change (FC)” value [19] was 2.26, the “fold change (FC)” value [20] was 4.34 and the “fold change (FC)” value [21] was 2.23. For the same molecule, the “fold change (FC)” value [22] was 7.68, the “fold change (FC)” value [23] was 1.32 and the “fold change (FC)” value [24] was 1.51. The “fold change (FC)” value [25] was 1.96, the “fold change (FC)” value [26] was 19.87 and the “fold change (FC)” value [27] was 5.52. For the same molecule, the “fold change (FC)” value [28] was 1.64, the “fold change (FC)” value [29] was 1.55 and the “fold change (FC)” value [30] was 1.22. The “fold change (FC)” value [31] was 1.86.
